Values of other authors in article PMC5306265 (Investigational New Drugs, 2016).

Legend:
[1] = test system: pERK; set-up: method as in PMID 18390968, PMID 24178622; conditions: paired tumor biopsies; cited from earlier work
[2] = test system: BRAF V600E/K-mutant melanoma; set-up: method as in PMID 22663011, PMID 22805292; conditions: cited from earlier work

Row | SMILES | geometric mean pERK reduction [1] | response rates [2]
1 | Cn1cnc2c(F)c(Nc3ccc(Br)cc3Cl)c(C(=O)NOCCO)cc21 [selumetinib] | 79% | 
2 | CC(=O)Nc1cccc(-n2c(=O)n(C3CC3)c(=O)c3c(Nc4ccc(I)cc4F)n(C)c(=O)c(C)c32)c1 [trametinib] |  | approximately 20%
